One block for each compound: values may come before it.
How the values were obtained:
[1] = tested on: glycosylase type DNA repair enzymes; test: OLISA biochip: excision of modified DNA bases by nuclear extracts of treated fibroblasts, donor (FHN52); type: cell-based, human; conditions: for digestion activity (elimination of modified DNA bases formed as a result of oxidative stress): overall conclusion
Experimental: (§1) Fibroblasts were obtained from a breast sample from a person and from photo-protected skin of a person.
(§2) Fibroblasts from each of the donors, […] (FHN52) and […] (FHN 1C), were cultured and treated in the exponential growth phase.
(§3) Fibroblasts were treated with ergothioneine (AGI Dermatics, Newport, N.Y., USA) at a non-cytotoxic concentration of 4 mM for 24 hours.
(§4) Treatment of fibroblasts with ascorbic acid 2-glucoside (Siber Hegner, Miribel, France) was carried out at a non-cytotoxic concentration of 50 μM of […] for 24 hours.
(§5) Nuclear extracts were prepared in order to obtain protein solutions containing the repair enzymes of interest.
(§6) Extracts were used at a final concentration of 10 μg/ml.
(§7) OLISA technology (Bonnet-Duquennoy et al., Eur. J. Dermatol., 16, 2, 136-140 2006) was used to measure the excision of nucleic bases modified by glycosylase type DNA repair enzymes.
(§8) The principle (FIG. 1) is described in the publication entitled: “An oligonucleotide micro-array for the monitoring of repair enzyme activity toward different DNA damage”, Sauvaigo et al., Annal. Biochem. (2004); 333: 182-192.
(§9) Labelled oligonucleotide probes immobilised on the support generate synthetic double strand DNA containing in their base sequence, the altered base whose repair activity by cellular enzymes is being studied.
(§10) The probes were determined in order to study enzyme repair typical lesions resulting from exposure to oxidative stress (FIG. 2).
(§11) An OLISA format chip (96-well plate; bioMérieux, Grenoble, France) with 17 spots was functionalised by oligonucleotides containing the various lesions of interest (LAN synthesis, CEA, Grenoble, France).
(§12) Functionalised wells were incubated at 30° C. in the presence of the extract of interest.
(§13) The duration of digestion chosen is 45 minutes for the experiments. Extracts were deposited in four wells.
(§14) Thus for each lesion, the percentage of lesions remaining after the extract activity is determined by calculating the ratio of “extract” well signals with respect to control wells which represent 100% lesions (calculation carried out using the mean of the 8 values obtained).
(§15) Similarly, to determine the effect of each of the 2 active ingredients on specific digestion of extracts, data obtained for each of the lesions were normalised by data obtained with the control oligonucleotide normalised by the control.

[2] = tested on: glycosylase type DNA repair enzymes; test: OLISA biochip: excision of modified DNA bases by nuclear extracts of treated fibroblasts, donor (FHN 1C); type: cell-based, human
Experimental: as §1, §2, §3, §4, §5, §6, §7, §8, §9, §10, §11, §12, §13, §14, §15

[3] = tested on: non-specific digestive activity (nuclease) of cell extracts; test: OLISA biochip: non-specific digestion of control oligonucleotide (no lesion) by extracts of treated fibroblasts; type: cell-based, human; conditions: immediately after treatment, 2 donors
Experimental: as §2, §3, §4, §5, §7
For this study, 2 spots per lesion of interest or control oligonucleotide (without lesion) and 3 spots used to direct the readings were used.
as §12, §13
In order to determine the effect of ergothioneine, on the one hand, and of ascorbic acid 2-glucoside, on the other, on non-specific digestion of extracts, data obtained with the control oligonucleotide normalised by the control were used.
In the same way, an analysis was carried out for each of the 2 donors tested. […]

keratinocytes = conditions: cited from earlier work
[4] = tested on: mouse skin cells placed in culture; conditions: cited from earlier work
Fibroblasts = test: Cytotoxicity of the treatment concentration on fibroblasts; type: cell-based, human; conditions: 4 mM for 24 hours
Experimental: as §3, §4

human cell lines = conditions: cited from earlier work
[5] = ascorbic acid 2-glucoside 50 μM, 24 hours after treatment, donor (FHN 52)
[6] = ascorbic acid 2-glucoside 50 μM, 24 hours after treatment
[7] = ergothioneine 4 mM 24 hours, rinsed, recultured without ergothioneine a further 24 hours, donor (FHN 52)
[8] = ergothioneine 4 mM 24 hours, donor (FHN 52), immediately after treatment
[9] = ergothioneine 4 mM 24 hours, immediately after treatment

residual percentage of 8-oxo-dG lesion [1, 5]: decreases significantly
residual percentage of formylamine lesion [1, 5]: decreases significantly
residual percentage of inosine lesion [1, 5]: decreases significantly
residual percentage of uracil lesion [1, 5]: decreases significantly
digestion activity (elimination of modified DNA bases formed as a result of oxidative stress) ([1]; ascorbic acid 2-glucoside 50 μM, fibroblast extracts of donor): significantly increases
residual percentage of 8 oxodG lesion [2, 6]: decreases significantly
residual percentage of formylamine lesion [2, 6]: decreases significantly
residual percentage of inosine lesion [2, 6]: decreases significantly
residual percentage of uracil lesion [2, 6]: decreases significantly
SMILES: O=C1O[C@H]([C@@H](O)CO)C(O)=C1O[C@H]1O[C@H](CO)[C@@H](O)[C@H](O)[C@H]1O [ascorbic acid 2-glucoside, 2-O-α-D-Glucopyranosyl L-ascorbic acid]
effect on the control oligonucleotide (non-specific digestion) ([3]; ascorbic acid 2-glucoside 50 μM for 24 hours): did not have a significant effect
protection against cytotoxicity caused by UVB (keratinocytes): effective agent in protecting keratinocytes
cell DNA fragmentation after damage caused by UVA or UVB [4]: reduction in the cell DNA fragmentation

SMILES: C[N+](C)(C)[C@@H](Cc1c[nH]c(=S)[nH]1)C(=O)[O-] [ergothioneine]
residual percentage of 8-oxo-dG lesion [1, 7]: decreases significantly
residual percentage of HmdU lesion [1, 7]: decreases significantly
residual percentage of ethenoda lesion [1, 7]: decreases significantly
residual percentage of formylamine lesion [1, 7]: decreases significantly
residual percentage of inosine lesion [1, 7]: decreases significantly
residual percentage of formylamine lesion [1, 8]: decreases significantly
residual percentage of inosine lesion [1, 8]: decreases significantly
residual percentage of uracil lesion [1, 8]: decreases significantly
residual percentage of 8 oxodG lesion ([1]; ergothioneine 4 mM 24 hours, donor (FHN 52), immediately after treatment, normalised to control oligonucleotide): decreases significantly
digestion activity (elimination of modified DNA bases formed as a result of oxidative stress) ([1]; ergothioneine 4 mM, fibroblast extracts): significantly increases
residual percentage of formylamine lesion [2, 9]: decreases significantly
residual percentage of uracil lesion [2, 9]: decreases significantly
effect on the control oligonucleotide (non-specific digestion) ([3]; ergothioneine 4 mM for 24 hours): no significant effect
cytotoxicity at treatment concentration (Fibroblasts): non-cytotoxic
DNA oxidation caused by peroxinitrites (human cell lines): inhibits
cell death triggered by hydrogen peroxide (human cell lines): inhibits

— US20090142285A1, “COSMETIC COMPOSITION COMPRISING ASCORBIC ACID 2-GLUCOSIDE AND ERGOTHIONEINE” (LVMH RECHERCHE, priority 2007, published 2009)
